Data: US6437128B1, “Cribrostatins 3-5” (Arizona Board of Regents, priority 2001, dated 2002)

Assays:
Assay in all cases: Antimicrobial disk diffusion
Format in all cases: cell-based
[1] = test system: Candida albicans (ATCC 90028)
[2] = test system: Staphylococcus aureus (ATCC 29213)
[3] = test system: Penicillin-resistant N. gonorrhoeae (clinical isolate)
[4] = test system: Neisseria gonorrhoeae (ATCC 49226)
[5] = test system: Escherichia coli (ATCC 25922)
[6] = test system: Streptococcus pneumoniae (ATCC 6303)
[7] = test system: Cryptococcus neoformans (ATCC 90112)
[8] = test system: Micrococcus luteus (Presque Isle 456)
[9] = test system: Enterococcus faecalis (ATCC 29212)
[10] = test system: Stenotrophomonas maltophilia (ATCC 13637)
[11] = test system: Bacillus subtilis (Presque Isle 620)
[12] = test system: Enterobacter cloacae (ATCC 13047)
[13] = test system: Invasive S. pneumoniae (clinical isolate)
[14] = test system: Penicillin-resistant S. pneumoniae (clinical isolate)
[15] = test system: Group A Streptococcus (clinical isolate)

Measured: Minimum inhibitory concentration

CC1=C(N)C(=O)c2c(ccnc2C)C1=O [Cribrostatin 1, cribrostatin 1, reference compound]
0.39-0.78 μg/disk: [3] | [4]
not listed: [13] | [14] | [15]
* (No inhibition at 100 μg/disk): all other assays above

CCOC1=C(C)C(=O)c2cc(=O)n(C)cc2C1=O [Cribrostatin 2, cribrostatin 2, reference compound]
3.12-6.25 μg/disk: [1]
12.5-25 μg/disk: [2] | [7]
12.3-25 μg/disk: [6]
50-100 μg/disk: [13] | [8]
25-50 μg/disk: [14] | [11]
0.39-0.78 μg/disk: [3] | [4]
* (No inhibition at 100 μg/disk): all other assays above
